Data: patent US20100179130A1, “USE OF PIPERINE AND DERIVATIVES THEREOF FOR THE THERAPY OF NEUROLOGICAL CONDITIONS” (SYNGIS Bioscience GmbH & Co. KG, priority 2007, published 2010)

Experiments:
neural stem cells = assay: In vitro differentiation assay on adult neural stem cells (beta-III-tubulin promoter firefly/Renilla dual luciferase reporter); assay type: cell-based, rat; conditions: for differentiation of neural stem cells to neurons, dose dependence: 0.2 μM up to 25, 50 or 100 μM, compared with sham and 1 μM retinoic acid; for fold induction at 1 µM: Rattus norvegicus, Neural stem cell, read-out: Stimulation factor for differentiation of neural stem cells; for fold induction at 1 µM / Stimulation factor for differentiation of neural stem cells: 1 μM final compound concentration, in comparison to sham treatment
Description: The neuroregenerative effect of the compounds according to the present invention can be assayed in vitro by measuring their stimulation of the differentiation of neural stem cells. Therefore, adult neural stem cells have to be isolated and subsequently cultivated in a suitable culture medium. After several passages in vitro the stem cells have to be co-transfected with a DNA construct coding for two discriminable reporter proteins one of them under the control of a constitutive promoter and the other under the control of a beta-III-tubulin promoter. The beta-III-tubulin promoter is induced during the process of neural stem cell differentiation; therefore the reporter protein under the control of this promoter serves as a marker for the stem cell differentiation in such an in vitro dual reporter assay (Schneider et al., J Clin Investigation 2005; 115:2083-2098). The person skilled in the art knows several suitable constitutive promoters such as the SV40-promoter, the TK-promoter, or the CMV-promoter. As discriminable reporter proteins for such a dual reporter assay one can use discriminable luciferases such as firefly luciferase and Renilla luciferase. The transfected cells have to be incubated with the test compound and with a positive and negative controls for normalization and background correction. As a positive control compound one can use retinoic acid (Guan et al., Cell Tissue Res. 2001; 305:171-176; Jacobs et al., Proc. Natl. Acad. Sci. USA 2006; 103:3902-3907), a suitable negative control is the sham treatment of the cells. The neroregenerative activity of the test compound is determined as the ratio of the signal of the beta-III-tubulin promoter controlled reporter versus the signal of the constitutively expressed reporter and is expressed as fold from the control. This assay is suitable to assess the neuroregenerative activity of piperine and derivatives thereof, but also can be used to screen for other potential neuroregenerative compounds. Preferably, such a screening can be used to test compounds which are already known to be suitable as a medicament in terms of its toxicology, bioavailability, solubility, stability etc.
Neural stem cells were isolated from the subventricular zone of 4 week-old male Wistar rats as described (Maurer et al, Proteome Sci. 2003; 1:4). Cells were cultivated in Neurobasal medium (Invitrogen) supplemented with B27 (Invitrogen), 2 mM L-glutamine, 100 units/ml penicillin, 100 units/ml streptomycin, 20 ng/ml […] (EGF), 20 ng/ml fibroblast growth factor-2 (FGF-2), and 2 μg/ml heparin. Once a week the neural stem cells were passaged and experiments were performed after 4 weeks in vitro. For DNA transfection, the cells were dissociated and plated on poly-L-ornithin/laminin-coated 96-well plates at a density of 50.000 cells/well. Cotransfection with the pGL3-p-βIII-tubulin vector (100 ng/well) and the pRL SV40 vector (100 ng/well) was carried out according to the FuGene6 Transfection protocol (Roche). The pRL SV40 vector (Promega) served as an internal control vector.
To amplify the class III β-tubulin gene promoter (fragment −450-+54), rat genomic DNA was used as a template for PCR (Dennis et al., Gene 2002; 294:269-277). The amplified fragment was inserted into the Mlu I/Xho I site of the pGL3-Basic firefly luciferase reporter vector (Promega) to generate the pGL3-p-βIII-tubulin experimental vector.
After overnight incubation, the plate was decanted and given in 8-fold replicates fresh medium containing piperine (Sigma) or vehicle. As a positive control for in vitro differentiation, stem cells were treated by adding 1 μM retinoic acid (Sigma) to the medium missing the mitogens.
After 48 hrs, the cells were harvested to prepare the cellular extracts for luciferase assay following the directions of the manufacturer (Promega). […]

SH-SY5Y neuronal cells [1] = assay: In vitro anti-apoptosis assay, staurosporine induced apoptosis, Caspase-Glo 3/7; assay type: cell-based, human; conditions: for degree of apoptosis relative to the staurosporine control: compound 1 μM in the presence of staurosporine 0.1 μM
[2] = system: motoneural cell line NSC-34; assay: Anti-apoptosis assay on motoneural cell line, staurosporine induced apoptosis, Caspase-Glo 3/7; assay type: cell-based; conditions: for degree of apoptosis relative to the staurosporine control: compound 1 μM in the presence of staurosporine 0.1 μM
Description: Instead of the SH-SY5Y cells used in Example 3 and 4, this analysis was performed with motoneural cell line NSC-34. […] Incubation with staurosporine (SP; 0.1 μM) alone served as positive control and incubation with vehicle served as negative control. The degree of apoptosis relative to the staurosporine control is shown in FIG. 4 (vehicle (sham): 6%; staurosporine (SP): 100%; piperine plus staurosporine: 70%; derivative B plus staurosporine: 55%; derivative E plus staurosporine: 75%; derivative G plus staurosporine: 76%; derivative K plus staurosporine: 83%; derivative S plus staurosporine: 77%; derivative U plus staurosporine: 71%).

SH-SY5Y neuronal cells [3] = assay: In vitro viability assay, cells stably transfected with constitutive Renilla luciferase; conditions: 1 μM, 5 h
Description: The viability assay allows for further assessment of test compounds regarding their effect on cells such as neurons. […] Subsequently, the signal generated by the reporter construct serves as a readout for the viability of the cells in the presence of the test compound. The assay enables the evaluation of potential neurotoxic effects of the test compound itself.
The effect of a compound on the viability of neuronal cells can be assayed in vitro by measuring the survival of neuronal cells transfected with a reporter construct under a constitutive promoter. SH-SY5Y neuronal cells stably transfected with a Renilla luciferase construct under the SV40 promoter were seeded in 96-well plates at a density of 2.5×10^4 cells per well. Following overnight incubation the cells were stimulated with medium containing piperine or vehicle. Staurosporine (0.1 μM) served as positive control. The Renilla luciferase activity was measured 5 h later using a luminometer (Berthold Technologies, Mithras LB 940). Piperine was tested in a range from 0.1 nM to 100 μM final concentration.

Row | Compound | differentiation of neural stem cells to neurons, dose dependence (neural stem cells) | fold induction at 1 µM (neural stem cells) | degree of apoptosis relative to the staurosporine control (SH-SY5Y neuronal cells [1]; SH-SY5Y) [%] | further results
1 | CCCOc1ccc(C=CC(=O)NC2CCCC2)cc1 [N-cyclopentyl-3-(4-propoxyphenyl)acrylamide] | significantly stimulates | 1.6 |  | 
2 | CCCOc1ccc(C=CC(=O)NC2CCCCCC2)cc1 [N-cycloheptyl-3-(4-propoxyphenyl)acrylamide] | significantly stimulates | 1.7 |  | 
3 | 3-(Chloro-3,4-dihydro-2H-benzo[b][1,4]dioxepin-7-yl)N-cyclohexyl-acrylamide |  |  |  | Stimulation factor for differentiation of neural stem cells (neural stem cells): 1.7 x-fold
4 | CCCOc1ccc(C=CC(=O)N2CCCCC2)cc1 [1-[3-(4-propoxyphenyl)acryloyl]piperidine] | significantly stimulates | 4 | 81 | degree of apoptosis relative to the staurosporine control [2]: 77%
5 | CCOc1ccc(C=CC(=O)NC2CCCO2)cc1 (stereo not shown) [3-(4-ethoxyphenyl)-N-(tetrahydro-2-furanyl)acrylamide] |  | 1.5 |  | 
6 | COc1ccc(C=CC(=O)NC2CCCCCCC2)cc1 [N-cyclooctyl-3-(4-methoxyphenyl)acrylamide] | significantly stimulates | 1.9 |  | 
7 | CC1CCN(C(=O)C=Cc2ccc3c(c2)OCO3)CC1 [1-[3-(1,3-benzodioxol-5-yl)acryloyl]-4-methylpiperidine] | significantly stimulates | 1.9 |  | 
8 | O=C(/C=C/c1ccc2c(c1)OCO2)N1CCCC1 [1-(3-trans-benzo-1,3-dioxol-5-ylacryloyl)pyrrolidine] | significantly stimulates | 1.3 | 72 | 
9 | CCCOc1ccc(C=CC(=O)N2CCCCCC2)cc1 [1-[3-(4-propoxyphenyl)acryloyl]azepane] |  | 2.3 |  | 
10 | NC1(C(=O)/C=C/c2ccc3c(c2)OCO3)CCCCCC1 [1-(3-trans-benzo-1,3-dioxol-5-ylacryloyl)cycloheptylamine] | significantly stimulates | 4 | 49 | degree of apoptosis relative to the staurosporine control [2]: 55%
11 | O=C(C=Cc1ccc2c(c1)OCO2)NC1=NCCS1 [3-Benzol[1,3]dioxol-5-yl-N-(4,5-dihydro-thiazol-2-yl)-acrylamide] | significantly stimulates |  | 79 | Stimulation factor for differentiation of neural stem cells (neural stem cells): 4.6 x-fold; viability of neuronal cells (SH-SY5Y neuronal cells [3]): did not show reduced viability; degree of apoptosis relative to the staurosporine control [2]: 76%
12 | O=C(/C=C/c1ccc(Cl)cc1)N1CCCCC1 [(2E)-3-(4-chlorophenyl)-1-piperidylprop-2-en-1-one] | significantly stimulates |  | 60 | Stimulation factor for differentiation of neural stem cells (neural stem cells): 4.4 x-fold; viability of neuronal cells (SH-SY5Y neuronal cells [3]): did not show reduced viability; degree of apoptosis relative to the staurosporine control [2]: 71%
13 | COc1cccc(NC(=O)/C=C/c2ccc(Cl)cc2)c1 [SB366791, reference compound] |  |  |  | inhibition of the neuroregenerative effect of piperine (neural stem cells; SB366791 10 μM co-incubated with 10 μM piperine): did not result in any inhibition; inhibition of the neuroprotective effect of piperine (SH-SY5Y neuronal cells [1]; SB366791 10 nM to 100 nM with piperine 10 μM and staurosporine 0.1 μM): did not result in any inhibition
14 | O=C(C=Cc1ccc2c(c1)OCO2)NC1CC2CCC1C2 (stereo not shown) [3-(1,3-benzodioxol-5-yl)-N-bicyclo[2.2.1]hept-2-ylacrylamide] |  | 1.7 |  | 
15 | O=C(C=Cc1ccc2c(c1)OCO2)NC1CCCCCCC1 [3-(1,3-benzodioxol-5-yl)-N-cyclooctylacrylamide] | significantly stimulates | 5 | 77 | degree of apoptosis relative to the staurosporine control [2]: 75%
16 | NC1(C(=O)/C=C/c2ccc3c(c2)OCO3)CCCC1 [1-(3-trans-benzo-1,3-dioxol-5-ylacryloyl)cyclopentylamine] | significantly stimulates | 1.4 | 77 | 
17 | O=C(C=Cc1ccc2c(c1)OCO2)NCC1CCCO1 (stereo not shown) [3-(1,3-benzodioxol-5-yl)-N-(tetrahydro-2-furanylmethyl)acrylamide] |  | 1.5 |  | 
18 | CN[C@@H]1C[C@H]2O[C@@](C)([C@@H]1OC)n1c3ccccc3c3c4c(c5c6ccccc6n2c5c31)C(=O)NC4 [staurosporine, reference compound] |  |  |  | degree of apoptosis relative to the staurosporine control (staurosporine alone) (SH-SY5Y neuronal cells [1]; staurosporine 0.1 μM alone, positive control, SH-SY5Y): 100%; degree of apoptosis relative to the staurosporine control (staurosporine alone) ([2]; staurosporine 0.1 μM alone, positive control): 100%
19 | O=C(C=Cc1ccc2c(c1)OCCCO2)N1CCCCCC1 [1-Azepan-1-yl-3-(3,4-dihydro-2H-benzo[b][1,4]dioxepin-7-yl)-propenone] | significantly stimulates |  | 83 | Stimulation factor for differentiation of neural stem cells (neural stem cells): 6.1 x-fold; viability of neuronal cells (SH-SY5Y neuronal cells [3]): did not show reduced viability; degree of apoptosis relative to the staurosporine control [2]: 83%
20 | O=C(C=Cc1cc(Cl)c2c(c1)OCCCO2)N1CCCCCC1 [1-Azepan-1-yl-3-(9-chloro-3,4-dihydro-2H-benzo[b][1,4]dioxepin-7-yl)-propenone] |  |  |  | Stimulation factor for differentiation of neural stem cells (neural stem cells): 2.2 x-fold
21 | O=C(C=Cc1cc(Cl)c2c(c1)OCCO2)N1CCCCCC1 [1-Azepan-1-yl-3-(8-chloro-2,3-dihydro-benzol[1,4]dioxin-6-yl)-propenone] |  |  |  | Stimulation factor for differentiation of neural stem cells (neural stem cells): 1.8 x-fold
22 | CCOc1ccc(C=CC(=O)NC2CCCCC2)cc1 [N-cyclohexyl-3-(4-ethoxyphenyl)acrylamide] |  | 1.7 |  | 
23 | COc1cc(CNC(=O)CCCC/C=C/C(C)C)ccc1O [capsaicin, reference compound] |  |  |  | stimulating effect on the differentiation of neural stem cells (neural stem cells; 0.1 nM to 100 μM final concentration): no stimulating effect; anti-apoptotic effect compared to piperine (10 μM) (SH-SY5Y neuronal cells [1]; capsaicin 10 μM with staurosporine 0.1 μM): only a marginal anti-apoptotic effect
